Experimental data from paper PMC9598367, “Discovery and Preliminary Structure-Activity Investigation of 3-Substituted-1H-imidazol-5-yl-1H-indoles with In Vitro Activity towards Methicillin-Resistant Staphylococcus aureus” (Antibiotics, 2022).
Values after ≈ are worked out from the molar mass of the structure shown. “Also recorded” adds a separate entry of the source.

What was measured:
human red blood cells = assay: Hemolytic assay; assay type: cell-based; conditions: for HC10: concentration at 10% hemolytic activity on human red blood cells, mean (n = 2); for hemolytic activity (in words): human red blood cells, result in words
Method: Human whole blood was washed three times with 3 volumes of 0.9% NaCl and then resuspended in same to a concentration of 0.5 × 10^8 cells/mL, as determined by manual cell count in a Neubauer hemocytometer. The washed cells were then added to the 384-well compound-containing plates for a final volume of 50 μL. After a 10 min shake on a plate shaker the plates were then incubated for 1 h at 37 °C. After incubation, the plates were centrifuged at 1000 g for 10 min to pellet cells and debris, 25 μL of the supernatant was then transferred to a polystyrene 384-well assay plate. Hemolysis was determined by measuring the supernatant absorbance at […] (OD405). The absorbance was measured using a Tecan M1000 Pro monochromator plate reader. HC10 and HC50 (concentration at 10% and 50% hemolysis, respectively) were calculated by curve fitting the inhibition values vs. log(concentration) using a sigmoidal dose–response function with variable fitting values for top, bottom and slope.

[1] = tested on: Staphylococcus aureus ATCC43300 (MRSA); assay: MIC, MRSA ATCC43300 (CO-ADD protocol); assay type: cell-based; conditions: for MIC: Staphylococcus aureus, Staphylococcus aureus ATCC43300 (MRSA), mean (n = 2), read-out: MIC (µg/mL) MRSA; for anti-MRSA activity (in words): result in words
Excerpt: Additional antimicrobial evaluation against Staphylococcus aureus MRSA (ATCC43300), Pseudomonas aeruginosa (ATCC27853), Escherichia coli (ATCC25922), Klebsiella pneumoniae (ATCC700603), Acinetobacter baumannii (ATCC19606), Candida albicans (ATCC90028), and Cryptococcus neoformans (ATCC208821) was undertaken at the Community for Open Antimicrobial Drug Discovery at The University of Queensland (Australia) according to their standard protocols. For antimicrobial assays, the tested strains were cultured in either Luria broth (LB) (In Vitro Technologies, USB75852, Noble Park North, Australia), nutrient broth (NB) (Becton Dickson, 234000, Macquarie Park, Australia), or cation-adjusted MHB at 37 °C overnight. A sample of culture was then diluted 40-fold in fresh MHB and incubated at 37 °C for 1.5−2 h. The compounds were serially diluted 2-fold across the wells of 96-well plates (Corning 3641, Tewksbury, MA, USA, nonbinding surface), with compound concentrations ranging from 0.015 to 64 μg/mL, plated in duplicate. The resultant mid log phase cultures were diluted to the final concentration of 1 × 10^6 CFU/mL; then, 50 μL was added to each well of the compound containing plates giving a final compound concentration range of 0.008 to 32 μg/mL and a cell density of 5 × 10^5 CFU/mL. All plates were then covered and incubated at 37 °C for 18 h. Resazurin was added at 0.001% final concentration to each well and incubated for 2 h before MICs were read by eye.
(§1) Colistin and vancomycin were used as positive bacterial inhibitor standards for Gram-negative and Gram-positive bacteria, respectively. Fluconazole was used as a positive fungal inhibitor standard for C. albicans and C. neoformans. The antibiotics were provided in 4 concentrations, with 2 above and 2 below its MIC value, and plated into the first 8 wells of column 23 of the 384-well NBS plates. The quality control (QC) of the assays was determined by the antimicrobial controls and the Z′-factor (using positive and negative controls).

[2] = tested on: HEK293 human embryonic kidney cells; assay: HEK293 cytotoxicity assay (resazurin); assay type: cell-based; conditions: HEK293; result in words
Method: (§2) For the HEK293 cytotoxicity assay, cells were counted manually in a Neubauer hemocytometer and plated at a density of 5000 cells/well into each well of the 384-well plates containing the 25× (2 μL) concentrated compounds. The medium used was Dulbecco’s modified eagle medium (DMEM) supplemented with 10% fetal bovine serum (FBS). Cells were incubated together with the compounds for 20 h at 37 °C, 5% CO2. To measure cytotoxicity, 5 μL (equals 100 μM final) of resazurin was added to each well after incubation, and incubated for further 3 h at 37 °C with 5% CO2. After final incubation fluorescence intensity was measured as Fex 560/10 nm, em 590/10 nm (F560/590) using a Tecan M1000 Pro monochromator plate reader. CC50 values (concentration at 50% cytotoxicity) were calculated by normalizing the fluorescence readout, with 74 μg/mL tamoxifen as negative control (0%) and normal cell growth as positive control (100%). The concentration-dependent percentage cytotoxicity was fitted to a dose response function (using Pipeline Pilot) and CC50 values determined.

[3] = HEK293 cytotoxicity assay (resazurin); assay type: cell-based, human; conditions: human; concentration at 50% cytotoxicity on HEK293 cells; mean (n = 2)
Method: as §2

[4] = tested on: Staphylococcus aureus ATCC25923; assay: MIC by broth dilution, S. aureus ATCC25923; assay type: cell-based; conditions: for MIC: Staphylococcus aureus ATCC25923, mean (n = 3)
Method: The susceptibility of S. aureus (ATCC25923) to antibiotics and compounds was determined in microplates using the standard broth dilution method in accordance with the recommendations of the Comité de l’AntibioGramme de la Société Française de Microbiologie (CA-SFM) as previously described. Briefly, the minimal inhibitory concentrations (MICs) were determined with an inoculum of 10^5 CFU in 200 µL of Mueller-Hinton broth (MHB) containing two-fold serial dilutions of each drug. […] To determine all MICs, the measurements were independently repeated in triplicate.

[5] = tested on: Cryptococcus neoformans ATCC208821; assay: Antifungal MIC, C. neoformans; assay type: cell-based; conditions: for MIC: Cryptococcus neoformans ATCC208821, mean (n = 2); for antifungal activity towards C. neoformans (in words): result in words
Method: For the antifungal assay, fungi strains were cultured for 3 days on yeast extract-peptone dextrose (YPD) agar at 30 °C. A yeast suspension of 1 × 10^6 to 5 × 10^6 CFU/mL was prepared from five colonies. These stock suspensions were diluted with yeast nitrogen base (YNB) (Becton Dickinson, 233520) broth to a final concentration of 2.5 × 10^3 CFU/mL. The compounds were serially diluted 2-fold across the wells of 96-well plates (Corning 3641, nonbinding surface), with compound concentrations ranging from 0.015 to 64 μg/mL and final volumes of 50 μL, plated in duplicate. Then, 50 μL of the fungi suspension that was previously prepared in YNB broth to the final concentration of 2.5 × 10^3 CFU/mL was added to each well of the compound-containing plates, giving a final compound concentration range of 0.008 to 32 μg/mL. Plates were covered and incubated at 35 °C for 36 h without shaking. C. albicans MICs were determined by measuring the absorbance at OD530. For C. neoformans, resazurin was added at 0.006% final concentration to each well and incubated for a further 3 h before MICs were determined by measuring the absorbance at OD570–600.
as §1

S. aureus (ATCC25923) = assay: Membrane depolarization assay, DiSC3(5); assay type: cell-based, Staphylococcus aureus; conditions: preliminary investigation; result in words
Method: S. aureus (ATCC25923) was grown in MH II broth for 24 h at 37 °C. After reaching an OD600 nm of 0.5, cells were centrifuged (3600× g for 20 min at 20 °C) and washed twice with buffered sucrose solution (250 mM), magnesium sulfate solution (25 mM) and Hepes (5 mM) (pH = 7.2). The fluorescent dye […] DiSC3(5) was added to a final concentration of 5 µM and was incubated with the suspensions for 5 min at 37 °C to allow the dye incorporation into the polarized membranes. 10 µL of compound was then added to 90 µL of the fluorescent suspensions at different concentrations ranging from 200 µM to 25 µM. Fluorescence measurements were recorded for 20 minutes (excitation wavelength 622 nm, emission wavelength 690 nm).
The difference in the relative fluorescence values (RFU) from the control containing only buffer and the control containing bacteria treated only with cetyltrimethylammonium bromide ([…]) is taken as the maximum level of depolarization. Assays were performed in three independent experiments. Blank determined by using no compound. Maximum RFU determined by using CTAB 0.1%
Equation used: (RFU of the compound−RFU of the blank)×100/RFU of the maximum

| MIC [1] | melting point | MIC [4] | MIC [5] | SMILES | HC10 (human red blood cells) | hemolytic activity (in words) (human red blood cells) | cytotoxicity (in words) [2] | CC50 at 20 h [3] | antifungal activity towards C. neoformans (in words) [5] | activity against S. aureus (in words) ([4]; result in words) | membrane depolarization of S. aureus (S. aureus (ATCC25923)) | anti-MRSA activity (in words) [1] |
| --- | --- | --- | --- | --- | --- | --- | --- | --- | --- | --- | --- | --- |
| ≤ 0.25 µg/mL |  | > 200 µg/mL | > 32 µg/mL | COc1ccc(CCn2cncc2-c2c[nH]c3ccc(Cl)cc23)cc1 [Compound 26, 5-Chloro-3-(1-(4-methoxyphenethyl)-1H-imidazol-5-yl)-1H-indole] | >32 µg/mL | lacked cytotoxic or hemolytic properties | lack of cytotoxicity; also recorded: lacked cytotoxic or hemolytic properties | > 32 µg/mL |  |  |  | promising non-toxic selective anti-MRSA compounds |
|  |  | 100 µg/mL (≈ 262 µM) | > 32 µg/mL | COc1ccc(OC)c(CCn2cncc2-c2c[nH]c3ccc(Cl)cc23)c1 [Compound 32, 5-Chloro-3-(1-(2,5-dimethoxyphenethyl)-1H-imidazol-5-yl)-1H-indole] | >32 µg/mL | lacked cytotoxic or hemolytic properties | lack of cytotoxicity; also recorded: lacked cytotoxic or hemolytic properties | > 32 µg/mL |  |  |  | promising non-toxic selective anti-MRSA compounds |
| 16 µg/mL (≈ 58.5 µM) | 57 to 58 °C | 50 µg/mL (≈ 183 µM) | ≤ 0.25 µg/mL | c1ccc(-c2cncn2Cc2c[nH]c3ccccc23)cc1 [Compound 111, 3-((5-Phenyl-1H-imidazol-1-yl)methyl)-1H-indole] | >32 µg/mL | lack of cytotoxicity and hemolytic activity | lack of cytotoxicity and hemolytic activity | > 32 µg/mL | non-toxic selective antifungals |  |  |  |
| 16 µg/mL (≈ 39 µM) | 194 to 195 °C | 12.5 µg/mL (≈ 30.5 µM) | 32 µg/mL (≈ 78 µM) | Brc1ccc2c(-c3cncn3CCc3ccc4c(c3)OCO4)c[nH]c2c1 [Compound 42, 3-(1-(2-(Benzo[d][1,3]dioxol-5-yl)ethyl)-1H-imidazol-5-yl)-6-bromo-1H-indole] | >32 µg/mL |  |  | 16.1 µg/mL (≈ 39.2 µM) |  |  |  |  |

More lines, now with the values behind:

| SMILES | MIC [1] | melting point | MIC [4] | MIC [5] | HC10 (human red blood cells) | hemolytic activity (in words) (human red blood cells) | cytotoxicity (in words) [2] | CC50 at 20 h [3] | antifungal activity towards C. neoformans (in words) [5] | activity against S. aureus (in words) ([4]; result in words) | membrane depolarization of S. aureus (S. aureus (ATCC25923)) | anti-MRSA activity (in words) [1] |
| --- | --- | --- | --- | --- | --- | --- | --- | --- | --- | --- | --- | --- |
| COc1ccc2c(-c3cncn3CCc3ccccc3)c[nH]c2c1 [Compound 57, 6-Methoxy-3-(1-phenethyl-1H-imidazol-5-yl)-1H-indole] | > 32 µg/mL | 48 to 49 °C | > 200 µg/mL | ≤ 0.25 µg/mL | >32 µg/mL | lack of cytotoxicity and hemolytic activity | lack of cytotoxicity and hemolytic activity | > 32 µg/mL | non-toxic selective antifungals |  |  |  |
| Fc1ccc2c(-c3cncn3Cc3ccc(I)cc3)c[nH]c2c1 [Compound 6, 6-Fluoro-3-(1-(4-iodobenzyl)-1H-imidazol-5-yl)-1H-indole] | > 32 µg/mL | 191 to 192 °C | 6.25 µg/mL (≈ 15 µM) | 32 µg/mL (≈ 76.7 µM) | >32 µg/mL |  |  | 15.6 µg/mL (≈ 37.4 µM) |  | strong activity | only very weak membrane depolarization |  |
| COc1ccc(CCn2cncc2-c2c[nH]c3cc(Br)ccc23)cc1 [Compound 28, 6-Bromo-3-(1-(4-methoxyphenethyl)-1H-imidazol-5-yl)-1H-indole] | 32 µg/mL (≈ 80.7 µM) | 184 to 185 °C | 12.5 µg/mL (≈ 31.5 µM) | 32 µg/mL (≈ 80.7 µM) | >32 µg/mL |  |  | 15.6 µg/mL (≈ 39.4 µM) |  |  |  |  |
| COc1ccc(Cn2cncc2-c2c[nH]c3ccccc23)cc1 [Compound 11, 3-(1-(4-Methoxybenzyl)-1H-imidazol-5-yl)-1H-indole] | 32 µg/mL (≈ 105 µM) | 159 to 160 °C | > 200 µg/mL | > 32 µg/mL | >32 µg/mL |  |  | 25.6 µg/mL (≈ 84.4 µM) |  |  |  |  |
